Active and inactive are the calls of the source. Rule as the data show it: actives have a measured IC50 and inactives only a lower limit.

In the assay the target is Envelope glycoprotein gp160 (Human immunodeficiency virus 1, UniProt Q6QLK5). Nature of the assay: cell-free HIV fusion peptide-binding blockers – biochemical, uHTS, fluorescence dequenching, […] (AID 1986).
Sequence of Envelope glycoprotein gp160 (Q6QLK5 whole entry, the tested form may be a part): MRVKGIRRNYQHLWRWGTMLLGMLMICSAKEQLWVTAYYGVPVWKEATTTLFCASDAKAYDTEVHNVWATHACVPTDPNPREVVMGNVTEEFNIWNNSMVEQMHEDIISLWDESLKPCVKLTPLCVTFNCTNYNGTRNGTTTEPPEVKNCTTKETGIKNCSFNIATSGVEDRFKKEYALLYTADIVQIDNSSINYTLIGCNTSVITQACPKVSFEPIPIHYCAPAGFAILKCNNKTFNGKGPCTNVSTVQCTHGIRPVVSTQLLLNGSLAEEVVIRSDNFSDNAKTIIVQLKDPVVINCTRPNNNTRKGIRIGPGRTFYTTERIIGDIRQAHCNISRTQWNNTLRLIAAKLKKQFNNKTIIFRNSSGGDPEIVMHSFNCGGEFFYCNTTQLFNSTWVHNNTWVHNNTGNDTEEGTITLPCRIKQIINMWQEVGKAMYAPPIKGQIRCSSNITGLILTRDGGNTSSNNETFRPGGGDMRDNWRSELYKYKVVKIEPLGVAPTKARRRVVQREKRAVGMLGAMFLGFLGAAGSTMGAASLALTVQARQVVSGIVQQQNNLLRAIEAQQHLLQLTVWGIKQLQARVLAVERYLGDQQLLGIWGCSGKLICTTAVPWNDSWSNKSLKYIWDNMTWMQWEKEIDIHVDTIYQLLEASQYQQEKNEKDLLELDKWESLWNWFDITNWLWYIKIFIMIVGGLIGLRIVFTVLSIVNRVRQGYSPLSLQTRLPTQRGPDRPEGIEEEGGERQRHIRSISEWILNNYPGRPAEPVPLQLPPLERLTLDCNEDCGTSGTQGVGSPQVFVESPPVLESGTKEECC
As a reminder, the IC50 is the concentration at which inhibition is half-maximal. In the case of `Cc1ccc2nc(N3C(=O)C(O)=C(C(=O)c4ccco4)C3c3cccc(O)c3)sc2c1` (stereo not drawn), the IC50 was 16.9 µM (active).
In the case of `CC1(C)CC(=O)C2=C(C1)c1c(ccc3ccccc13)NC2c1cc([N+](=O)[O-])cc([N+](=O)[O-])c1O` (stereo not drawn), the IC50 is 9.83 µM (active).
Regarding `CC(C)COc1ccc(-c2nn(-c3ccccc3)cc2/C=C2/SC(=S)N(CC(=O)O)C2=O)cc1`, the IC50 was 8.09 µM (active).

Values taken from ChEMBL document CHEMBL1201862, “PubChem BioAssay data set” (2004).
